Results: PubChem BioAssay (NCI)
Values joined by “and” are separate entries in the source; they are usually repeats but may differ in a detail not shown here. Equal values may be shown once.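 These data come from cells grown in 96-well plates and exposed to compound for 48 hours at five concentrations. GI50: concentration for 50% inhibition of growth. TGI: concentration producing complete growth inhibition.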

How the values were obtained:
Test in all cases: NCI-60 cell line screen, 48 h
SK-MEL-28 melanoma = tested on: SK-MEL-28 melanoma
MDA-MB-231 breast = tested on: MDA-MB-231 breast
SK-MEL-5 melanoma = tested on: SK-MEL-5 melanoma
HL-60(TB) leukemia = tested on: HL-60(TB) leukemia
CCRF-CEM leukemia = tested on: CCRF-CEM leukemia
UO-31 renal = tested on: UO-31 renal
KM12 colon = tested on: KM12 colon
OVCAR-3 ovarian = tested on: OVCAR-3 ovarian
DU-145 prostate = tested on: DU-145 prostate
786-0 renal = tested on: 786-0 renal

Compound | GI50 (SK-MEL-28 melanoma) | TGI (SK-MEL-28 melanoma) | GI50 (MDA-MB-231 breast) | TGI (MDA-MB-231 breast) | GI50 (SK-MEL-5 melanoma) | TGI (SK-MEL-5 melanoma) | GI50 (HL-60(TB) leukemia) | TGI (HL-60(TB) leukemia) | GI50 (CCRF-CEM leukemia) | TGI (CCRF-CEM leukemia) | GI50 (UO-31 renal) | TGI (UO-31 renal) | GI50 (KM12 colon) | TGI (KM12 colon) | GI50 (OVCAR-3 ovarian) | TGI (OVCAR-3 ovarian) | GI50 (DU-145 prostate) | TGI (DU-145 prostate) | GI50 (786-0 renal) | TGI (786-0 renal)
O=C(Cc1ccc(/C=C/C(=O)c2ncc[nH]2)cc1)Nc1ccc(F)cc1 | 6.26 µM | 16.6 µM | 1.83 µM | 10.3 µM | 6.06 µM | 11.9 µM | 1.66 µM | 10.6 µM | 1.68 µM | > 33.3 µM | 2.64 µM | 7.06 µM | 2.1 µM | 7.91 µM | 1.7 µM | 6.01 µM | 1.19 µM | 4.58 µM | 1.37 µM | 5.81 µM
CCOC(=O)/C(=C/N1CCN(C(=O)c2ccco2)C1=S)C(=O)c1ccccc1 | 22.2 µM | > 50 µM | 10.8 µM | 33.2 µM | < 0.005 µM | < 0.005 µM | 14.9 µM | 31 µM | 15.6 µM | > 50 µM | 9.99 µM | 19.3 µM | 10.1 µM | > 50 µM | 20.2 µM | > 50 µM | 8.04 µM | 24.1 µM | 12.9 µM | 45.2 µM
CN(c1ncccc1CNc1nc(Nc2ccc3c(c2)CC(=O)N3)ncc1C(F)(F)F)S(C)(=O)=O | 2.07 µM and 2.92 µM | 6.58 µM and > 10 µM | 2.01 µM and 2.33 µM | > 100 µM | 2.57 µM and 2.28 µM | 7.44 µM and 5.85 µM | 2.02 µM and 1.38 µM | 5.72 µM and 5.51 µM | 3 µM and 2.46 µM |  | 2.88 µM and 2.82 µM | > 28.7 µM | 0.367 µM and 0.425 µM | 4.52 µM and 7.35 µM | 2.42 µM and 2.81 µM | > 26.9 µM | 2.88 µM and 2.74 µM | > 100 µM | 3.02 µM and 2.51 µM | > 83.8 µM
O=C1CSCc2sccc21 |  | > 100 µM |  | > 100 µM |  | > 100 µM |  | > 100 µM |  | > 100 µM |  | > 100 µM |  | > 100 µM |  | > 100 µM |  | > 100 µM |  | > 100 µM
